Results as given in the supplement of paper PMC4858399.

Experiments:
[1] = system: Caenorhabditis elegans N2; assay: mean nematode size ln(EXT) after 48 h, plate-adjusted (DMSO control set to 6) (ln(EXT), control-adjusted); higher = larger nematodes / less growth inhibition; details: exposure time 48 h
Summary of the method: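 In K-medium with killed OP50, 1% DMSO and 0.5–200 µM chemical, synchronised N2 L1 larvae of C. elegans (50 per well) grew for 48 h at 20°C. Extinction was read for every worm on the Biosort, with debris removed by a growth model. Natural-log values averaged per well gave mean size, which was corrected per plate by subtracting the vehicle control mean and adding 6.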

[2] = system: Caenorhabditis elegans N2; assay: lowest effective concentration for larval growth inhibition (size below effect threshold); higher = less potent; details: exposure time 48 h
Summary of the method: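 L1 larvae of C. elegans N2 (50 per 96-well) were grown in K-medium with killed bacteria and 1% DMSO, with the chemical at 0.5, 1, 5, 10, 50, 100 or 200 µM, for 48 h at 20°C. Per-worm extinction from the Biosort stood for size and was log-transformed into well means. For each chemical, the lowest effective concentration is the first dose where plate-adjusted mean size falls under the threshold and stays under it at the higher doses, using a threshold of 5.665.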

| Structure (SMILES) | mean nematode size ln(EXT) (ln) ([1]; 0.5 µM) | mean nematode size ln(EXT) (ln) ([1]; 1 µM) | mean nematode size ln(EXT) (ln) ([1]; 5 µM) | mean nematode size ln(EXT) (ln) ([1]; 10 µM) | mean nematode size ln(EXT) (ln) ([1]; 50 µM) | mean nematode size ln(EXT) (ln) ([1]; 100 µM) | mean nematode size ln(EXT) (ln) ([1]; 200 µM) | lowest effective concentration [2] |
| --- | --- | --- | --- | --- | --- | --- | --- | --- |
| CCNc1nc(N)nc(Cl)n1 [6-Deisopropylatrazine] | 6.12 | 6.17 | 6.08 | 6.05 | 5.95 | 6 | 5.94 | > 200 µM |
| Cc1cccc2ccccc12 [1-Methylnaphthalene] | 6.08 | 6.13 | 5.94 | 6.03 | 5.99 | 6.02 | 6.02 | > 200 µM |
| CC(C)CC(C)O (stereo unspecified) [4-Methyl-2-pentanol] | 6.05 | 5.96 | 6.02 | 5.89 | 5.97 | 5.96 | 5.79 | > 200 µM |
| CC1(C)C(=O)N(Cl)C(=O)N1Cl [1,3-Dichloro-5,5-dimethylhydantoin] | 5.81 | 5.79 | 5.79 | 5.82 | 5.83 | 5.8 | 5.67 | > 200 µM |
| CS(=O)(=O)OCCCCOS(C)(=O)=O [Busulfan] | 5.98 | 5.93 | 5.94 | 5.95 | 5.98 | 5.94 | 5.8 | > 200 µM |
| Cc1cccc(C)c1O [2,6-Dimethylphenol] | 5.9 | 5.89 | 5.89 | 5.78 | 5.88 | 5.65 | 5.82 | > 200 µM |
| CC1=CC(=O)CC(C)(C)C1 [Isophorone] | 5.84 | 5.72 | 5.76 | 5.71 | 5.75 | 5.94 | 5.79 | > 200 µM |
| N#CN [Cyanamide] | 5.91 | 5.96 | 6.01 | 6 | 5.96 | 6.01 | 5.92 | > 200 µM |
| Nc1nc(N)nc(NC2CC2)n1 [Cyromazine] | 5.45 | 5.67 | 5.56 | 5.57 | 5.42 | 6.14 | 5.94 | > 200 µM |
| CCN(CC)CCO [N,N-Diethylethanolamine] | 5.86 | 5.89 | 5.91 | 5.81 | 5.83 | 5.76 | 5.78 | > 200 µM |
| N#Cc1cc(Br)c(O)c(Br)c1 [Bromoxynil] | 5.85 | 5.95 | 5.86 | 5.91 | 5.84 | 5.95 | 5.67 | > 200 µM |
| CN(C)C(=O)Nc1cccc(C(F)(F)F)c1 [Fluometuron] | 6.02 | 6.11 | 6.08 | 6.02 | 5.87 | 6.07 | 5.78 | > 200 µM |
